Results on 63 compounds are retold here after ChEMBL document CHEMBL1147537, “N-Benzoyl amino acids as ICAM/LFA-1 inhibitors. Part 2: structure-activity relationship of the benzoyl moiety” (Bioorg Med Chem Lett, 2004).

Non-standard residues stand in square brackets, D forms with d. Residues, ends and D or L forms follow the SMILES beside them. ξ: configuration not given here. ξPip = O=C(O)C1CCCCN1

Usually IC50 stands for the point on the concentration scale where inhibition reaches its midpoint. Low readings indicate greater potency in that assay, high ones weaker potency in that assay.

Chain of Intercellular adhesion molecule (ICAM-1), Integrin alpha-L/beta-2 (P20701 whole entry): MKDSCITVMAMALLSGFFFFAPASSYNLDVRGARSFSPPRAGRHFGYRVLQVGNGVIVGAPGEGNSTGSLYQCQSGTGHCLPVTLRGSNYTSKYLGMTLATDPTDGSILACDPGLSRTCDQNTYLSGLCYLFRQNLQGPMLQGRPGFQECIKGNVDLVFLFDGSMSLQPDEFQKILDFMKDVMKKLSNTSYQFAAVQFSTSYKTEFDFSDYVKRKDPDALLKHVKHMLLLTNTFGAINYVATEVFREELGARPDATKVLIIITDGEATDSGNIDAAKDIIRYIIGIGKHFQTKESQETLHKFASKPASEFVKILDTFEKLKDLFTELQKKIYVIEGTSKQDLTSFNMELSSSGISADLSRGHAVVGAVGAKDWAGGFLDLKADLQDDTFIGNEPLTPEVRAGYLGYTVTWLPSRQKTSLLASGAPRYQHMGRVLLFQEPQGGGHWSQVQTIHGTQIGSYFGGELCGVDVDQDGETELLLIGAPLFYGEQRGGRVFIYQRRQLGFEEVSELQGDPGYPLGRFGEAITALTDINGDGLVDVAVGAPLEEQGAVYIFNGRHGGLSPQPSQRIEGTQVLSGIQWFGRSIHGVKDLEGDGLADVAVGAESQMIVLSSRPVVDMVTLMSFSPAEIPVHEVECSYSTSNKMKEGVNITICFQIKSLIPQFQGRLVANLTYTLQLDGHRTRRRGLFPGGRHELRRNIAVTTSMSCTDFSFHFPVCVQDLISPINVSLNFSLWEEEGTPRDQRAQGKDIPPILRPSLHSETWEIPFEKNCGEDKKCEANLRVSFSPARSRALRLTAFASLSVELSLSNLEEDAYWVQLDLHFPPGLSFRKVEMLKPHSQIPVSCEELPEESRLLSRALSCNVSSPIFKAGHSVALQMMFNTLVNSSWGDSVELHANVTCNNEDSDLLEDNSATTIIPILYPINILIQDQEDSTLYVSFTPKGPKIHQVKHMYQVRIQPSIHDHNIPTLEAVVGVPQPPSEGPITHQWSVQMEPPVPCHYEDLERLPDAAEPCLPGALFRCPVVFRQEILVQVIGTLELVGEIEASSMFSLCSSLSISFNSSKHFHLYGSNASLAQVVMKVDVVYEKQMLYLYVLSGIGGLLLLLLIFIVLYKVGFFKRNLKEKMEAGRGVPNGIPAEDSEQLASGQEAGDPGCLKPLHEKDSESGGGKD
Chain of Intercellular adhesion molecule (ICAM-1), Integrin alpha-L/beta-2 (P05362 whole entry): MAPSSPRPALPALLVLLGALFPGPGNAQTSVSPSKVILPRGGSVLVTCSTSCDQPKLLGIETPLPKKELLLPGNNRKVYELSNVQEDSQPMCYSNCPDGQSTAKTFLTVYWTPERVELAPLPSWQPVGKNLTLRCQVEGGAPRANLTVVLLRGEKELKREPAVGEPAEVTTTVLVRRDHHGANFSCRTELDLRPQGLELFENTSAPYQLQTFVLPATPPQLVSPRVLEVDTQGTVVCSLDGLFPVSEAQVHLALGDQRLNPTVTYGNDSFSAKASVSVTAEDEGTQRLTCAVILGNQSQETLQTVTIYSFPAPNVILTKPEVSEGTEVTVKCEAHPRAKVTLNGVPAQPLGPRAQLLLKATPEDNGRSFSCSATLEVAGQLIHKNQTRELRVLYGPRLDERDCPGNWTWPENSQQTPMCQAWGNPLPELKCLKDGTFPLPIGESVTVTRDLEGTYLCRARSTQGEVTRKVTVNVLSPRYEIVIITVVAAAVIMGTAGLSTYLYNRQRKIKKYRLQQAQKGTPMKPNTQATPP
Chain of Intercellular adhesion molecule (ICAM-1), Integrin alpha-L/beta-2 (P05107 whole entry): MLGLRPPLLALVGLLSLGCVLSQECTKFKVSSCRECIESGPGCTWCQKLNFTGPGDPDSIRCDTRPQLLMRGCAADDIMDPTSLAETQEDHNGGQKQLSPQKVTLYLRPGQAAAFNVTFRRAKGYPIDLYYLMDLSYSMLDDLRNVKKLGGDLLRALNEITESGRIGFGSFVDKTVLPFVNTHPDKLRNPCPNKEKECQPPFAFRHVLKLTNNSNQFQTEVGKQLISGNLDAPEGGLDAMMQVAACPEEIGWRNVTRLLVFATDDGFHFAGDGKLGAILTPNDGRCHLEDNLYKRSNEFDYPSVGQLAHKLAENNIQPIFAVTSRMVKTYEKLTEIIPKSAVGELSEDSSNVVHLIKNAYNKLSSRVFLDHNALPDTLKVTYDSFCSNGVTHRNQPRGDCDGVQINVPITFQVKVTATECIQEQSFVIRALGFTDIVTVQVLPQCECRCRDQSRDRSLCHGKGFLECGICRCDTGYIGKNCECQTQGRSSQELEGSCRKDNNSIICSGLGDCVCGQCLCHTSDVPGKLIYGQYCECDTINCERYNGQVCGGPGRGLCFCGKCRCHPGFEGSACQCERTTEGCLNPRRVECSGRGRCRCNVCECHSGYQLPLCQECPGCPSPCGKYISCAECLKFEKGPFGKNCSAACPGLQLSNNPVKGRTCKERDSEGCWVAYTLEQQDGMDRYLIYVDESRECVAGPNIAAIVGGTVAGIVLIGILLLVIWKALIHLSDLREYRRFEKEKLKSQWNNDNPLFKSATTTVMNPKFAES

This assay addresses Intercellular adhesion molecule (ICAM-1), Integrin alpha-L/beta-2 (Homo sapiens, UniProt P05107+P05362+P20701). As to the kind of experiment: Inhibitory activity against association of LFA-1 with intercellular adhesion molecule 1. The assay is classed as protein-complex assay.
`COc1ccc(C(=O)N[C@@H](Cc2c[nH]c3ccccc23)C(=O)O)cc1` gave an IC50 of 178 µM.
On to `NC(=O)C[C@H](NC(=O)c1c(F)cccc1Cl)C(=O)O`, for which the half-inhibitory concentration (IC50) amounted to 0.11 µM.
With `O=C(N[C@@H](Cc1c[nH]c2ccccc12)C(=O)O)c1cc(Br)ccc1Cl`, the IC50 turned out to be 17.9 µM.
Regarding `O=C(N[C@@H](Cc1c[nH]c2ccccc12)C(=O)O)c1ccccn1`, the half-inhibitory concentration (IC50) is > 100 µM.
To `O=C(N[C@@H](Cc1c[nH]c2ccccc12)C(=O)O)c1ccccc1-c1ccccc1` belongs > 100 µM.
To `O=C(N[C@@H](Cc1c[nH]c2ccccc12)C(=O)O)c1ccc(Br)cc1` belongs 61 µM.
Regarding `O=C(N[C@@H](Cc1c[nH]c2ccccc12)C(=O)O)C1CCCNC1` (stereo partly drawn), the half-maximal inhibitory concentration (IC50) is > 1000 µM.
`Cc1cccc(C)c1C(=O)N[C@@H](Cc1cnc[nH]1)C(=O)O` showed an IC50 of 1.77 µM.
As to `CC1CCCCC1C(=O)N[C@@H](Cc1c[nH]c2ccccc12)C(=O)O` (stereo partly drawn), the IC50 amounted to 28 µM.
`O=C(N[C@@H](Cc1c[nH]c2ccccc12)C(=O)O)C1CCCCN1` (stereo partly drawn) (H-[ξPip]-Trp-OH): the IC50 is > 1000 µM.
Turning to `O=C(N[C@@H](Cc1c[nH]c2ccccc12)C(=O)O)c1ccccc1O`, the IC50 is > 500 µM.
`O=C(N[C@@H](Cc1c[nH]c2ccccc12)C(=O)O)c1ccc(Cl)cc1Cl` showed an IC50 of 8.4 µM.
Regarding `Cc1cccc(C)c1C(=O)N[C@@H](Cc1c[nH]c2ccccc12)C(=O)O`, the midpoint of inhibition, the IC50, lay at 1.1 µM.
The figure for `O=C(N[C@@H](Cc1c[nH]c2ccccc12)C(=O)O)c1ccccc1F` is 7.4 µM; for `O=C(N[C@@H](Cc1c[nH]c2ccccc12)C(=O)O)c1cccc(F)c1F` it is 21.6 µM.
For `O=C(N[C@@H](Cc1c[nH]c2ccccc12)C(=O)O)c1c(F)cccc1Br`, half-maximal inhibition (IC50) required 0.43 µM.
To `NC(=O)C[C@H](NC(=O)c1c(F)cccc1F)C(=O)O` belongs 0.23 µM.
The figure for `O=C(N[C@@H](Cc1c[nH]c2ccccc12)C(=O)O)C1CCCCC1` is 61 µM; for `O=C(N[C@@H](Cc1c[nH]c2ccccc12)C(=O)O)c1c(F)cccc1Cl` it is 0.25 µM; for `O=C(N[C@@H](Cc1c[nH]c2ccccc12)C(=O)O)c1cc(Cl)cc(Cl)c1` it is 200 µM.
The figure for `O=C(N[C@@H](Cc1c[nH]c2ccccc12)C(=O)O)c1ccc(Cl)c(Cl)c1` is 170 µM.
Compound `O=C(N[C@@H](Cc1c[nH]c2ccccc12)C(=O)O)c1cc(Cl)ccc1Cl` returned an IC50 of 6.6 µM.
In turn, `Cc1ccccc1C(=O)N[C@@H](Cc1c[nH]c2ccccc12)C(=O)O` returned an IC50 of 4 µM.
In the case of `O=C(N[C@@H](Cc1c[nH]c2ccccc12)C(=O)O)c1cccc(Br)c1`, the IC50 is > 100 µM.
For `O=C(N[C@@H](Cc1c[nH]c2ccccc12)C(=O)O)c1cc(F)ccc1F`, the IC50 stood at 11.5 µM.
`COc1ccc(Br)c(C(=O)N[C@@H](Cc2c[nH]c3ccccc23)C(=O)O)c1`: the half-maximal inhibitory concentration (IC50) worked out at 9 µM.
The compound `O=C(N[C@@H](Cc1c[nH]c2ccccc12)C(=O)O)c1ccncc1` displayed an IC50 of 92 µM.
The figure for `NC(=O)C[C@H](NC(=O)c1c(Cl)cccc1Cl)C(=O)O` is 0.17 µM.
`O=C(N[C@@H](Cc1cnc[nH]1)C(=O)O)c1c(Cl)cccc1Cl` yielded an IC50 of 0.16 µM.
For `Cc1cccc(Cl)c1C(=O)N[C@@H](Cc1c[nH]c2ccccc12)C(=O)O`, half-maximal inhibition (IC50) required 0.64 µM.
For the compound `O=C(N[C@@H](Cc1c[nH]c2ccccc12)C(=O)O)c1cc(Br)ccc1Br`, the IC50 was 24.3 µM.
For the compound `O=C(N[C@@H](Cc1c[nH]c2ccccc12)C(=O)O)C1CCNCC1`, the IC50 is > 1000 µM.
The compound `O=C(N[C@@H](Cc1c[nH]cn1)C(=O)O)c1c(F)cccc1Cl` had an IC50 of 0.13 µM.
Compound `O=C(N[C@@H](Cc1c[nH]c2ccccc12)C(=O)O)c1ccc(Cl)cc1` [BENZOTRIPT] had an IC50 of 169 µM.
The figure for `O=C(N[C@@H](Cc1c[nH]c2ccccc12)C(=O)O)c1ccc(O)cc1` is > 100 µM; for `O=C(N[C@@H](Cc1c[nH]c2ccccc12)C(=O)O)c1c(F)cccc1F` it is 0.46 µM.
Compound `O=C(N[C@@H](Cc1c[nH]c2ccccc12)C(=O)O)c1cccc(F)c1` gave an IC50 of 148 µM.
Regarding `COc1cccc(C(=O)N[C@@H](Cc2c[nH]c3ccccc23)C(=O)O)c1`, the IC50 was 438 µM.
Consider `Cc1cccc(C(=O)N[C@@H](Cc2c[nH]c3ccccc23)C(=O)O)c1`, for which the IC50 stood at 295 µM.
Turning to `O=C(N[C@@H](Cc1c[nH]c2ccccc12)C(=O)O)c1cccc(Cl)c1Cl`, the IC50 amounted to 6.3 µM.
With `Nc1ccc(C(=O)N[C@@H](Cc2c[nH]c3ccccc23)C(=O)O)c(Cl)c1`, the 50% inhibitory concentration (IC50) is 2 µM.
To `O=C(N[C@@H](Cc1c[nH]c2ccccc12)C(=O)O)c1cccc(Cl)c1` belongs 295 µM; to `COc1ccccc1C(=O)N[C@@H](Cc1c[nH]c2ccccc12)C(=O)O`, 225 µM.
For `O=C(N[C@@H](Cc1c[nH]c2ccccc12)C(=O)O)c1ccccc1Cl`, the midpoint of inhibition, the IC50, lay at 1.5 µM.
For `O=C(N[C@@H](Cc1c[nH]c2ccccc12)C(=O)O)c1ccc([N+](=O)[O-])cc1Cl`, the IC50 is 5.2 µM.
Compound `O=C(N[C@@H](Cc1c[nH]cn1)C(=O)O)c1c(F)cccc1F` came in with an IC50 of 0.2 µM.
Take `O=C(N[C@@H](Cc1c[nH]c2ccccc12)C(=O)O)c1cccnc1Cl`: the IC50 is 1.2 µM.
The figure for `O=C(N[C@@H](Cc1c[nH]c2ccccc12)C(=O)O)c1ccccc1` is 127 µM; for `O=C(N[C@@H](Cc1c[nH]c2ccccc12)C(=O)O)c1cnccc1Cl` it is 32.6 µM; for `O=C(O)[C@H](Cc1c[nH]c2ccccc12)NC(=O)N1CCCCC1` it is 380 µM.
`O=C(N[C@@H](Cc1c[nH]c2ccccc12)C(=O)O)c1cccnc1`: 112 µM corresponded to half-maximal inhibition (IC50).
Turning to `O=C(N[C@@H](Cc1c[nH]c2ccccc12)C(=O)O)c1cncc(Br)c1`, the IC50 is > 200 µM.
Consider `Cc1ccc(C(=O)N[C@@H](Cc2c[nH]c3ccccc23)C(=O)O)cc1`, for which the IC50 amounted to 129 µM.
In the case of `O=C(N[C@@H](Cc1c[nH]c2ccccc12)C(=O)O)c1cccc(I)c1`, the IC50 was > 100 µM.
With `O=C(N[C@@H](Cc1c[nH]c2ccccc12)C(=O)O)c1ccc(-c2ccccc2)cc1`, the IC50 was > 100 µM.
To `O=C(N[C@@H](Cc1c[nH]c2ccccc12)C(=O)O)c1c(Cl)cccc1Cl` belongs 0.6 µM.
`O=C(N[C@@H](Cc1c[nH]c2ccccc12)C(=O)O)c1ccccc1I`: the IC50 is 8.9 µM.
`O=C(N[C@@H](Cc1c[nH]c2ccccc12)C(=O)O)c1ccc[n+]([O-])c1`: the 50% inhibitory concentration (IC50) was > 1000 µM.
In turn, `O=C(N[C@@H](Cc1c[nH]c2ccccc12)C(=O)O)c1ccc(I)cc1` came in with a half-maximal inhibitory concentration (IC50) of 92 µM.
In turn, `O=C(N[C@@H](Cc1c[nH]c2ccccc12)C(=O)O)c1cc(F)cc(F)c1` showed an IC50 of 89.7 µM.
As to `O=C(N[C@@H](Cc1c[nH]c2ccccc12)C(=O)O)c1cc(Br)ccc1O`, the IC50 was > 500 µM.
Turning to `O=C(N[C@@H](Cc1c[nH]c2ccccc12)C(=O)O)c1cccc(O)c1`, the IC50 was > 100 µM.
The figure for `O=C(N[C@@H](Cc1c[nH]c2ccccc12)C(=O)O)c1ccc(F)cc1` is 136 µM.
